# Test results reported in patent US10154955B2, “Compositions including bauhinia, methods of making and using the same in skin anti-aging and other skin applications” (ACCESS BUSINESS GROUP INTERNATIONAL LLC, priority 2016, dated 2018).
# Where “and” joins values, the source holds several entries; their conditions need not be identical. Equal entries are not always repeated.
# Columns and labels:
# [1] = Cell toxicity-CTG in HepG2 cells; format: cell-based; details: human, FIG. 5
# Protocol: On Day 1 of the procedure, Hep G2 [HEPG2] cells were plated on 96-well cell culture plates. To do so, disk was trypsinized and the cell density was determined. The cell slurry was diluted to the required volume at a density of 625,000 cells/ml. 160 ul/well of the cell slurry was dispensed onto assay plates. (100,000 cells per well). The assay plates were incubated overnight at 37 degrees C., 5% CO2 under humidified conditions. On Day 2, the cells were treated with […] and Hydroquinone or Vitamin C as a reference. 200× compounds were prepared in 100% DMSO. Transfer 5 ul 200× compound was transferred to 95 ul completed medium (MEM with 10% FBS), and mixed 5 times. 20 ul 10× compound solution was transferred onto assay plates. The assay plates were incubated at 37 degrees C., 5% CO2 under humidified conditions.
# [2] = tested on: Hep G2 [HEPG2] cells; assay: Anti-carbonylation assay (protein carbonyl ELISA after H2O2 treatment); format: cell-based; details: 3 mM H2O2 4 hr, replicate values
# Protocol: The purpose of this experiment was to test […] on anti-carbonylation assay using Hep G2 [HEPG2] (ATCC#HB-8065) cell line. The carbonylation process is related to protein degeneration and is similar to oxidation and glycation. On Day 1 of the procedure, Hep G2 [HEPG2] cells were plated on 96-well cell culture plates. To do so, disk was trypsinized and the cell density was determined. The cell slurry was diluted to the required volume at a density of 625,000 cells/ml. 160 ul/well of the cell slurry was dispensed onto assay plates. (100,000 cells per well). The assay plates were incubated overnight at 37 degrees C., 5% CO2 under humidified conditions. On Day 2, the cells were treated with […] and Hydroquinone or Vitamin C as a reference. 200× compounds were prepared in 100% DMSO. Transfer 5 ul 200× compound was transferred to 95 ul completed medium (MEM with 10% FBS), and mixed 5 times. 20 ul 10× compound solution was transferred onto assay plates. The assay plates were incubated at 37 degrees C., 5% CO2 under humidified conditions. Day 3 included treatment with H2O2. 30 mM H2O2 solution was prepared and 20 ul/well of H2O2 solution was dispensed onto assay plates (H2O2 final conc. 3 mM). The assay plates were incubated for 4 hr at 37 degrees C., 5% CO2 under humidified conditions. Following the incubation, the cell culture medium was discarded and cells once washed once with PBS. 60 ul PBS was added onto assay plate, frozen at -80° C. Frozen samples were recovered 3 times. […] The liquid supernatant was then transferred to compound plate. 5 ul of each cell lysis was obtained and the protein concentration was tested. The protein concentration was adjusted to 5 μg/ml with PBS and reduced BSA (total protein conc. 10 μg/ml), and mixed 5 times. 100 uL of the 5 ug/ml samples was then transferred onto the 96-well Protein Binding Plate, and incubated in 4° C. overnight. To perform ELISA assay on Day 5, the wells were washed 3 times with 250 μL PBS per well and excess wash solution removed. 100 μL of the 0.04 mg/ml DNPH Working Solution was added and the plates were incubated for 45 minutes at room temperature in the dark. The plates were then washed 5 times with 250 μL of PBS/Ethanol (1:1, v/v) with incubation on an orbital shaker for 5 minutes. Next, the plates were washed 2 times with 250 μL of PBS. 200 μL of Blocking Solution was added per well and the plates were incubated for 2 hours at room temperature on an orbital shaker, and then washed 3 times with 250 μL of 1× Wash Buffer with thorough aspiration between each wash. 100 μL anti-DNP antibody was added and the plates were incubated for 1 hour at room temperature on an orbital shaker. Next, the strip wells were washed 3 times (1× wash buffer), 100 μL of the diluted HRP conjugated secondary antibody was added to all wells and plates were incubated for 1 hour at room temperature on an orbital shaker. The strip wells were then washed 5 times (1× wash buffer). The Substrate Solution was warmed to room temperature and 100 μL of Substrate Solution was added to each well, 5 20 min. The enzyme reaction was stopped by adding 100 μL of Stop Solution to each well. […] Data Process included: • Signal=Sample 450 nm Signal-10 ug/ml Reduced BSA Signal • Protein Carbonyl Conc. (PCC)=(Signal-Y intercept)/Slope • % Inh=(Max PCC-Sample PCC)/(Max PCC-Min PCC)×100 • Max PCC was obtained from the cells treated with H2O2 • Min PCC was obtained from none treated cells • IC50 was calculated using GraphPad Prism V5.0 software
structure (smiles),measurement,setting,value
Oc1ccc(O)cc1 [Hydroquinone],IC50,[1],8.44 µg/mL
"O=C1O[C@H]([C@@H](O)CO)C(O)=C1O [Vit. C, Vitamin C]",Carbonylation inhibition,[2]; 33 ug/ml,28.6%
same,Carbonylation inhibition,[2]; 100 ug/ml,64.6%
same,Carbonylation inhibition,[2]; 300 ug/ml,49.1% and 76.2%
same,inhibition at 33 µg/mL,"[2]; Homo sapiens, HepG2, 4 h, 33 ug/ml",33.5%
same,inhibition at 100 µg/mL,"[2]; Homo sapiens, HepG2, 4 h, 100 ug/ml",46.1%
